{
  "source": "patent US6461587B1",
  "about": "“Perfluoroalkylamides, their production and their use in diagnosis” (Schering Aktiengesellschaft, priority 1999, dated 2002)",
  "key": {"[1]": {"experiment": "Relaxivity of compounds according to the invention", "type": "physicochemical", "details": "0.47 T and 37° C.", "source_text": "Relaxivity of Compounds According to the Invention"}, "[2]": {"experiment": "Compatibility of compounds according to the invention (LD 50)", "details": "in vivo", "source_text": "Compatibility of Compounds According to the Invention"}, "[3]": {"experiment": "Blood level and pharmacokinetics after intravenous administration, in vivo comparison with Dy-DTPA", "details": "rats, i.v. 100 μmol/kg; for Vd ss / α-t½ / β-t½: n=3; for blood concentrations compared with Dy-DTPA: all examination times 1-120 minutes p.i.", "procedure": "Three 350 g male (Schering-SPF) rats are used as test animals. 0.33-0.37 ml (in each case 100 mmol/L) of the following contrast medium solution is administered intravenously to each animal: mixture of 1 part each of a perfluoroalkyl-containing compound and the dysprosium-complex of (Dy-DTPA). The administered dose is in each case 100 μmol of Gd or Dy/kg of body weight. Via a catheter in the common carotid artery, blood samples are taken at the following times: 1, 3, 5, 10, 15, 20, 30, 45, 60, 90, 120 minutes p.i. In the blood samples that are obtained, in each case the concentrations of gadolinium (Gd) and dysprosium (Dy) are measured in parallel using atomic emission spectrometry (ICP-AES). The proportion of the injected compounds (Gd-containing perfluoroalkyl-containing compound and Dy-containing comparison substance) that remains in the blood space can be compared in the same animal by the different labeling. The α- and β-half life, the distribution volume and the total clearance can be calculated from the blood concentrations using special software (Topfit program). […]"}, "[4]": {"experiment": "Retention of the opacifying metal at the injection site", "type": "in vivo", "details": "guinea pig, 10 μmol Gd/kg s.c.", "source_text": "After s.c. administration of 10 μmol of total gadolinium/kg of body weight in the guinea pig paw, the retention of metal at the injection site was studied at different times."}, "[5]": {"experiment": "Organ distribution of the contrast medium after s.c. administration", "type": "in vivo", "details": "guinea pigs, 10 μmol Gd/kg s.c., 7 days after administration", "procedure": "After subcutaneous administration of 10 μmol of total gadolinium/kg of body weight in the hind paw of stimulated guinea pigs (complete Freund adjuvant; 0.1 ml i.m in the right and left lower leg in each case; 2 weeks before the test are administered), the retention of the metal in the […] as in the kidneys and spleen was examined 7 days administration."}, "[6]": {"experiment": "Lymph node visualization (MRT) after interstitial administration of contrast medium", "type": "in vivo", "details": "guinea pigs, 10 μmol of Gd/kg s.c., 15 or 30 minutes, T1-weighted gradient echo images", "procedure": "MR images of popliteal, inguinal and iliac lymph nodes both before (Precontrast) and 15 or 30 minutes after subcutaneous administration (guinea pigs, hind paw, interdigital space) of the substance of Example 5e or of Example 3c (in each case 10 μmol of Gd/kg of body weight) were taken."}, "[7]": {"details": "Table 2: plasma, mixture of 4c and Dy-DTPA"}, "[8]": {"details": "Table 1: plasma, mixture of 5e and Dy-DTPA"}},
  "data": [
    {"molecule": "CC(C(=O)NCC(=O)N(CCOCCC(F)(F)C(F)(F)C(F)(F)C(F)(F)C(F)(F)C(F)(F)C(F)(F)C(F)(F)F)CC(O)CO)N1CCN(CC(=O)[O-])CCN(CC(=O)[O-])CCN(CC(=O)[O-])CC1.[Gd+3]", "note": "(stereo not shown) [Example 2c]", "values": [
      {"measurement": "R1 in Plasma", "setting": "[1]", "value": 19.6, "unit": "L/mmol/s"},
      {"measurement": "R1 in Water", "setting": "[1]", "value": 11.8, "unit": "L/mmol/s"},
      {"measurement": "LD 50", "setting": "[2]", "value": "3 mmol of Gd/kg of body weight"}
    ]},
    {"molecule": "CC(C(=O)NCC(=O)NCCNS(=O)(=O)C(F)(F)C(F)(F)C(F)(F)C(F)(F)C(F)(F)C(F)(F)C(F)(F)C(F)(F)F)N1CCN(CC(=O)[O-])CCN(CC(=O)[O-])CCN(CC(=O)[O-])CC1.[Gd+3]", "note": "(stereo not shown) [Example 10c, 1,4,7-Tris(carboxylatomethyl)-10-{(3-aza-4-oxo-hexan-5-ylic)-acid-N-[(2-perfluorooctylsulfonylamino)-ethyl]-amide}-1,4,7,10-tetraazacyclododecane, gadolinium complex]", "values": [
      {"measurement": "R1 in Plasma", "setting": "[1]", "value": 27.8, "unit": "L/mmol/s"},
      {"measurement": "R1 in Water", "setting": "[1]", "value": 21.6, "unit": "L/mmol/s"}
    ]},
    {"molecule": "CC(C(=O)NCC(=O)N(CCO)CCOCCC(F)(F)C(F)(F)C(F)(F)C(F)(F)C(F)(F)C(F)(F)C(F)(F)C(F)(F)F)N1CCN(CC(=O)[O-])CCN(CC(=O)[O-])CCN(CC(=O)[O-])CC1.[Gd+3]", "note": "(stereo not shown) [Example 4c]", "values": [
      {"measurement": "Vd ss", "setting": "[3]; [7]", "value": "0.12 ± 0.00", "unit": "L/kg"},
      {"measurement": "α-t½", "setting": "[3]; [7]", "value": "1.01 ± 0.32", "unit": "min"},
      {"measurement": "β-t½", "setting": "[3]; [7]", "value": "79.68 ± 12.26", "unit": "min"},
      {"measurement": "distribution volume compared to Dy-DTPA", "setting": "[3]", "value": "significantly smaller distribution volume"},
      {"measurement": "blood concentrations compared with Dy-DTPA", "setting": "[3]", "value": "significantly higher blood concentrations"},
      {"measurement": "R1 in Plasma", "setting": "[1]", "value": 21.9, "unit": "L/mmol/s"},
      {"measurement": "R1 in Water", "setting": "[1]", "value": 14.4, "unit": "L/mmol/s"},
      {"measurement": "LD 50", "setting": "[2]", "value": "0.3 mmol of Gd/kg of body weight"}
    ]},
    {"molecule": "1,4,7-Tris(carboxylatomethyl)-10-{(3-aza-4-oxo-hexan-5-ylic)-acid- [N-4,7,10,17-tetraoxa-14-aza-17-oxo-C20-C28-hepta-decafluoro)-heptacosyl]-amide}-1,4,7,10-tetraazacyclododecane, gadolinium complex [Example 6b]", "values": [
      {"measurement": "Gadolinium Content at the Injection Site (Paw)", "setting": "[4]; 30 min. p.i.", "value": "66.4% of dose"},
      {"measurement": "Gadolinium Content at the Injection Site (Paw)", "setting": "[4]; 90 min. p.i.", "value": "26.1% of dose"},
      {"measurement": "Gadolinium Content at the Injection Site (Paw)", "setting": "[4]; 7 days p.i.", "value": "0.6% of dose"},
      {"measurement": "Gadolinium Content in Kidneys", "setting": "[5]", "value": "0.1% of dose"},
      {"measurement": "Gadolinium Content in Liver", "setting": "[5]", "value": "1.5% of dose"},
      {"measurement": "Gadolinium Content in Spleen", "setting": "[5]", "value": "0.0% of dose"},
      {"measurement": "R1 in Plasma", "setting": "[1]", "value": 13.3, "unit": "L/mmol/s"},
      {"measurement": "R1 in Water", "setting": "[1]", "value": 11.6, "unit": "L/mmol/s"}
    ]},
    {"molecule": "COCCOCCOCCOCCOCCN(CCOCCC(F)(F)C(F)(F)C(F)(F)C(F)(F)C(F)(F)C(F)(F)C(F)(F)C(F)(F)F)C(=O)CNC(=O)C(C)N1CCN(CC(=O)[O-])CCN(CC(=O)[O-])CCN(CC(=O)[O-])CC1.[Gd+3]", "note": "(stereo not shown) [Example 5e]", "values": [
      {"measurement": "Vd ss", "setting": "[3]; [8]", "value": "0.16 ± 0.03", "unit": "L/kg"},
      {"measurement": "α-t½", "setting": "[3]; [8]", "value": "3.77 ± 0.75", "unit": "min"},
      {"measurement": "β-t½", "setting": "[3]; [8]", "value": "102.29 ± 24.48", "unit": "min"},
      {"measurement": "distribution volume compared to Dy-DTPA", "setting": "[3]", "value": "significantly smaller distribution volume"},
      {"measurement": "blood concentrations compared with Dy-DTPA", "setting": "[3]", "value": "significantly higher blood concentrations"},
      {"measurement": "MR signal in popliteal, inguinal and iliac lymph nodes of the injected body side vs non-injected side or precontrast", "setting": "[6]", "value": "strong signal increase"},
      {"measurement": "Gadolinium Content at the Injection Site (Paw)", "setting": "[4]; 30 min. p.i.", "value": "8.5% of dose"},
      {"measurement": "Gadolinium Content at the Injection Site (Paw)", "setting": "[4]; 90 min. p.i.", "value": "9.4% of dose"},
      {"measurement": "R1 in Plasma", "setting": "[1]", "value": 30.3, "unit": "L/mmol/s"},
      {"measurement": "R1 in Water", "setting": "[1]", "value": 12.4, "unit": "L/mmol/s"},
      {"measurement": "LD 50", "setting": "[2]", "value": "15 mmol of Gd/kg of body weight"}
    ]},
    {"molecule": "COCCN(CCOCCC(F)(F)C(F)(F)C(F)(F)C(F)(F)C(F)(F)C(F)(F)C(F)(F)C(F)(F)F)C(=O)CNC(=O)C(C)N1CCN(CC(=O)[O-])CCN(CC(=O)[O-])CCN(CC(=O)[O-])CC1.[Gd+3]", "note": "(stereo not shown) [Example 1c]", "values": [
      {"measurement": "R1 in Plasma", "setting": "[1]", "value": 25.7, "unit": "L/mmol/s"},
      {"measurement": "R1 in Water", "setting": "[1]", "value": 13.8, "unit": "L/mmol/s"}
    ]},
    {"molecule": "Dy-DTPA [reference compound]", "values": [
      {"measurement": "Vd ss", "setting": "[3]; [8]", "value": "0.29 ± 0.09", "unit": "L/kg"},
      {"measurement": "α-t½", "setting": "[3]; [8]", "value": "2.19 ± 0.59", "unit": "min"},
      {"measurement": "β-t½", "setting": "[3]; [8]", "value": "62.59 ± 37.47", "unit": "min"},
      {"measurement": "Vd ss", "setting": "[3]; [7]", "value": "0.15 ± 0.03", "unit": "L/kg"},
      {"measurement": "α-t½", "setting": "[3]; [7]", "value": "0.89 ± 0.32", "unit": "min"},
      {"measurement": "β-t½", "setting": "[3]; [7]", "value": "21.37 ± 2.18", "unit": "min"}
    ]},
    {"molecule": "CC(C(=O)NCC(=O)NCCOCCC(F)(F)C(F)(F)C(F)(F)C(F)(F)C(F)(F)C(F)(F)C(F)(F)C(F)(F)F)N1CCN(CC(=O)[O-])CCN(CC(=O)[O-])CCN(CC(=O)[O-])CC1.[Gd+3]", "note": "(stereo not shown) [Example 7, 1,4,7-Tris(carboxylatomethyl)-10-[-(3-aza-4-oxo-hexan-5-ylic)-acid-N-(1H,1H,2H,2H,4H,4H,5H,5H-3-oxa-perfluorotridecyl)-amide]-1,4,7, 10-tetraaza-cyclododecane, gadolinium complex]", "values": [
      {"measurement": "Gadolinium Content at the Injection Site (Paw)", "setting": "[4]; 30 min. p.i.", "value": "54.2% of dose"},
      {"measurement": "Gadolinium Content at the Injection Site (Paw)", "setting": "[4]; 90 min. p.i.", "value": "36.8% of dose"},
      {"measurement": "Gadolinium Content at the Injection Site (Paw)", "setting": "[4]; 7 days p.i.", "value": "1.3% of dose"},
      {"measurement": "Gadolinium Content in Kidneys", "setting": "[5]", "value": "0.2% of dose"},
      {"measurement": "Gadolinium Content in Liver", "setting": "[5]", "value": "6.2% of dose"},
      {"measurement": "Gadolinium Content in Spleen", "setting": "[5]", "value": "0.0% of dose"},
      {"measurement": "R1 in Plasma", "setting": "[1]", "value": 21.0, "unit": "L/mmol/s"},
      {"measurement": "R1 in Water", "setting": "[1]", "value": 18.1, "unit": "L/mmol/s"}
    ]},
    {"molecule": "CC(C(=O)NCC(=O)N(CCOCCO)CCOCCC(F)(F)C(F)(F)C(F)(F)C(F)(F)C(F)(F)C(F)(F)C(F)(F)C(F)(F)F)N1CCN(CC(=O)[O-])CCN(CC(=O)[O-])CCN(CC(=O)[O-])CC1.[Gd+3]", "note": "(stereo not shown) [Example 3c]", "values": [
      {"measurement": "MR signal in popliteal, inguinal and iliac lymph nodes of the injected body side vs non-injected side or precontrast", "setting": "[6]", "value": "strong signal increase"},
      {"measurement": "Gadolinium Content at the Injection Site (Paw)", "setting": "[4]; 30 min. p.i.", "value": "6.5% of dose"},
      {"measurement": "Gadolinium Content at the Injection Site (Paw)", "setting": "[4]; 90 min. p.i.", "value": "4.9% of dose"},
      {"measurement": "Gadolinium Content at the Injection Site (Paw)", "setting": "[4]; 7 days p.i.", "value": "1.7% of dose"},
      {"measurement": "Gadolinium Content in Kidneys", "setting": "[5]", "value": "0.1% of dose"},
      {"measurement": "Gadolinium Content in Liver", "setting": "[5]", "value": "1.3% of dose"},
      {"measurement": "Gadolinium Content in Spleen", "setting": "[5]", "value": "0.0% of dose"},
      {"measurement": "R1 in Plasma", "setting": "[1]", "value": 21.0, "unit": "L/mmol/s"},
      {"measurement": "R1 in Water", "setting": "[1]", "value": 14.0, "unit": "L/mmol/s"},
      {"measurement": "LD 50", "setting": "[2]", "value": "8 mmol of Gd/kg of body weight"}
    ]}
  ]
}
